Assay results: PMC8457121, “From Kinase Inhibitors to Multitarget Ligands as Powerful Drug Leads for Alzheimer's Disease using Protein‐Templated Synthesis” (Angewandte Chemie (International Ed. in English), 2021)

Assays:
LRRK2 = molecular target: T1, LRRK2 (Homo sapiens, UniProt Q5S007); experiment: LRRK2 inhibition enzymatic assay (Adapta, ThermoFisher); type: biochemical
T1 construct: purchased ThermoFisher (assay run by the company)

CK1δ = CK1δ (Homo sapiens, UniProt P48730); experiment: CK1δ inhibition enzymatic assay (Kinase-Glo); type: biochemical
Method: CK1δ inhibition enzymatic assay. The “Kinase-Glo” Kit from Promega was used to screen compounds for activity against CK1δ Kinase-Glo assays were performed in assay buffer using black 96-well plates. In a typical assay, 10 μl of test compound (dissolved in DMSO at 1 mM concentration and diluted in advance in assay buffer to the desired concentration) 10 μl (16 ng) of enzyme were added to each well followed by 20 µl of assay buffer containing 0,1 % casein as substrate […]
exceed 1%. After 60-min incubation at 30°C the enzymatic reaction was stopped […]
with 40 μl of Kinase-Glo reagent. Glow-type luminescence was recorded after 10 min using a FLUOstar Optima (BMG Labtechnologies GmbH, Offenburg, Germany) multimode reader. The activity is proportional to the difference of the total and consumed ATP. The inhibitory activities were calculated on the basis of maximal activities measured in the absence of inhibitor. The IC50 was defined as the concentration of each compound that reduces a 50% the enzymatic activity with respect to that without inhibitors. […]
Ibérica SAU). Kinase-Glo Luminescent Kinase Assay was obtained from Promega (Promega Biotech Ibérica, SL). ATP and all other reagents were from Sigma Aldrich (St. Louis, MO). Assay buffer contained 50 mM HEPES (pH 7.5), 1 mM EDTA, 1 mM EGTA, and 15 mM magnesium acetate. […]

BACE1 = BACE1 (Homo sapiens, UniProt P56817); experiment: BACE1 enzymatic assay (FRET); type: biochemical; conditions: for inhibition at 10 µM: read-out: BACE1 enzyme inhibition at 10 μM
Method: BACE1 enzymatic assay. BACE1 in vitro assays were carried out using FRET.
μM) carrying the Swedish mutation and containing a rhodamine as a fluorescence donor and a quencher acceptor at each end was used. The intact substrate is weakly fluorescent and becomes highly fluorescent upon enzymatic cleavage.
The assays were conducted in 50 mM sodium acetate buffer, pH 4.5, in a final

PAMPA-BBB test = type: in vitro ADME; conditions: for Papp at 2.5 h: read-out: Pe exp
Method: dissolved in 250 µL of DMSO (Sigma-Aldrich). 25 µL of these compound stock
solutions were taken and 225 µL of DMSO and 4750 µL of PBS pH 7.4 buffer
compound concentration in the range of 0.2 to 1.1 mM. Compounds to be
µL of DMSO and 4750 µL of PBS pH 7.4 was carefully added to afford a final
compound concentration in the range of 0.2 to 1.1 mM. Solutions were filtered
using filter PDVF membrane units (diameter 30 mm, pore size 0.45 μm, Symta).
10 µL of each solution were taken and diluted 10-fold with PBS/DMSO (95/5) for
HPLC-MS analysis. The acceptor 96-well plate (Multiscreen®, catalog no.
MAMCS9610, Millipore) was filled with 180 µL of PBS/DMSO (95/5). The donor
96-well plate (Multiscreen® IP Sterile Plate PDVF membrane, pore size is 0.45
M, catalog no. MAIPS4510, Millipore) was coated with 4 µL 20 mg·mL-1 of
for 5 min and then 180 µL of each compound solution was added. Then the donor
plate was put on the acceptor plate and kept for 2.5 h at room temperature. After
incubation, samples were collected from the acceptor plate and diluted 10-fold
with PBS/DMSO (95/5) for HPLC-MS analysis and compared to HPLC-MS of
initial solutions. Absorbance peak of each compound was determined by MS
detection and was used to calculate the concentration of compounds and
Every sample was analysed in two independent
runs. HPLC-MS was performed using a HPLC-MS equipment from Thermo
Fisher coupled to a Finnigan TM LXQ TM detector. Each compound was
analysed using a Sunfire column C18, 3.5 μm (50 mm x 4.6 mm) and acetonitrile
and Milli-Q water (with 0.1% formic acid) as mobile phase. The standard gradient

Human recombinant GSK3β = molecular target: T2, Human recombinant GSK3β (Homo sapiens, UniProt P49841); experiment: GSK3β inhibition enzymatic assay (Kinase-Glo); type: biochemical
T2 construct: purchased Millipore (Millipore Ibérica SAU)
Method: GSK3β inhibition enzymatic assay. Human recombinant GSK3β and the pre-phosphorylated polypeptide substrate were purchased from Millipore (Millipore Ibérica SAU). Kinase-Glo Luminescent Kinase Assay was obtained from Promega (Promega Biotech Ibérica, SL). ATP and all other reagents were from Sigma Aldrich (St. Louis, MO). Assay buffer contained 50 mM HEPES (pH 7.5), 1 mM EDTA, 1 mM EGTA, and 15 mM magnesium acetate.
Kinase-Glo assays were performed in assay buffer using black 96-well plates. In a typical assay, 10 μL (10 μM) of test compound (dissolved in DMSO) at 1 mM concentration and diluted in advance in assay buffer to the desired concentration) and 10 μL (20 ng) of enzyme were added to each well followed by 20 μL of assay buffer containing 25 μM substrate and 1 μM ATP. The final DMSO concentration […]
After 30 min incubation at 30 °C, the enzymatic reaction was stopped with 40 μL of Kinase-Glo reagent. Glow-type luminescence was recorded after 10 min using a FLUOstar Optima (BMG
Labtechnologies GmbH, Offenburg, Germany) multimode reader. The activity is proportional to the difference of the total and consumed ATP. The inhibitory activities were calculated based on maximal activities measured in the absence of inhibitor. The IC50 was defined as the concentration of each compound that reduces a 50 % the enzymatic activity with respect to that without inhibitors. […]

SK-APP cells = experiment: Aβ40 and Aβ42 levels in SK-APP cells (sandwich ELISA); type: cell-based, human; conditions: 10 μM, 48 h treatment
Method: page 35: enzyme concentration (1 U/mL). Inhibitor screening at 10 μM. The mixture was incubated for 60 min at 25 °C under dark conditions and then stopped with 2.5 M sodium acetate. Fluorescence was measured with a FLUOstar Optima (BMG Labtechnologies GmbH, Offenburg, Germany) microplate reader at 545 nm excitation and 585 nm emission. Evaluation of BACE Inhibitors Kinetics. To evaluate the mechanism of BACE1 inhibition of the compounds, substrate-dependent kinetic experiments were performed. BACE activity were measured at five different concentrations substrate (1000 -62,5 μM) in the absence or presence of the select inhibitor at two different concentrations. The results are presented as double reciprocal Lineweaver-Burk plots (1/V vs 1/[S]) Figure S1. Cell culture and treatments. SK-N-MC cells stably expressing the human isoform APP695 (SK-APP cell line […]1) were generated by transfection of SK-N-MC cells with a pCDNA3-APP expression vector, and kindly provided by Dr. MJ Bullido. These cells were cultured in DMEM (Thermo Fisher) medium supplemented with 10% FBS (Thermo Fisher), 1 mM glutamine (Sigma- Aldrich), and 100 unit/ml penicillin (Lonza) and […] streptomycin (Lonza). Cell cultures were maintained in a 5% CO2, humidified atmosphere at 37 °C. SH-SY5Y cells were obtained from the American Type Culture Collection and grown in DMEM media (Gibco), supplemented with 10% foetal bovine serum, and 1% penicillin/streptomycin (Invitrogen). The cells were grown at 37 °C in a humidified 5% CO2 atmosphere. For the treatments, all the compounds were dissolved in dimethyl sulfoxide (DMSO, from Sigma) at an initial stock concentration of 10 mM. […] working solutions were obtained from the dilution of the stock solutions in DMEM media (DMSO control solutions were prepared similarly to the compounds). Okadaic acid (OA, Sigma-Aldrich) was dissolved in DMSO at an initial stock concentration of 60 μM and a 250X working solution was obtained from the dilution of the stock solution in DMEM. All the compounds (250x solutions) were added directly into the wells at the indicated final concentrations for 1 hour before the treatment with OA at a final concentration of 30 nM. DMSO was added at the appropriate concentration to the 34 page 36: control-untreated cells. The cells were maintained in the presence of the OA and the different compounds for 24h. Measurement of cell viability. Cell viability assays were carried out using a 3- […] (Sigma-Aldrich) in 96-well cell culture plates. All cells were then incubated with a 0.5 mg/ml MTT solution (Sigma-Aldrich) at 37 °C for 4 h and then with cell lysis […] The absorbance values were determined at 590 nm. Cell viability was expressed as a percent of OD of control cells, the value of which was defined as 100%. Cell viability in SH-SY5Y were carried out following the same procedure but seeding the cells in 24 well multiplates. Absorbance was measured using a Varioskan Flash multiplate reader (Thermo Scientific) at test 550 nm and reference 664 nm wave-lengths. Compound concentration for SK-APP line was 10 μM and for the SH-SY5Y was 1 and 5 μM. Immunoassays. Levels of Aβ40 and Aβ42 were quantified by sandwich ELISAs (Wako, Osaka, Japan) from cellular lysates and conditioned media collected. CNS penetration: in vitro PAMPA-BBB test. Prediction of the brain penetration was evaluated using a parallel artificial membrane permeability assay (PAMPA).1 Nine quality control compounds (mentioned below) of know BBB permeability were included in each experiment to validate the analysis set.2 Commercial drugs […] dissolved in 250 μL of DMSO (Sigma-Aldrich). 25 μL of these compound stock solutions were taken and 225 μL of DMSO and 4750 μL of PBS pH 7.4 buffer were added to reach 5% of DMSO concentration in the experiment and a final […] Compounds to be determined their ability to pass the brain barrier (0.5-1 mg) were dissolved in 250 μL of DMSO and 4750 μL of PBS pH 7.4 was carefully added to afford a final […]

SH-SY5Y cells = experiment: Okadaic acid-induced cell death model, viability of SH-SY5Y cells; type: cell-based, human; conditions: OA 30 nM, 24 h, compound 1 and 5 µM
Method: page 35: enzyme concentration (1 U/mL). Inhibitor screening at 10 μM. The mixture was incubated for 60 min at 25 °C under dark conditions and then stopped with 2.5 M sodium acetate. Fluorescence was measured with a FLUOstar Optima (BMG Labtechnologies GmbH, Offenburg, Germany) microplate reader at 545 nm excitation and 585 nm emission. Evaluation of BACE Inhibitors Kinetics. To evaluate the mechanism of BACE1 inhibition of the compounds, substrate-dependent kinetic experiments were performed. BACE activity were measured at five different concentrations substrate (1000 -62,5 μM) in the absence or presence of the select inhibitor at two different concentrations. The results are presented as double reciprocal Lineweaver-Burk plots (1/V vs 1/[S]) Figure S1. Cell culture and treatments. […] The absorbance values were determined at 590 nm. Cell viability was expressed as a percent of OD of control cells, the value of which was defined as 100%. […] Absorbance was measured using a Varioskan Flash multiplate reader (Thermo Scientific) at test 550 nm and reference 664 nm wave-lengths. […] Levels of Aβ40 and Aβ42 were quantified by sandwich ELISAs (Wako, Osaka, Japan) from cellular lysates and conditioned media collected. […] Compounds to be determined their ability to pass the brain barrier (0.5-1 mg) were dissolved in 250 μL of DMSO and 4750 μL of PBS pH 7.4 was carefully added to afford a final […]

[1] = PAMPA-BBB, PBS pH 7.4/DMSO 95/5, 2.5 h, room temperature

Sequence of CK1δ (P48730 whole entry): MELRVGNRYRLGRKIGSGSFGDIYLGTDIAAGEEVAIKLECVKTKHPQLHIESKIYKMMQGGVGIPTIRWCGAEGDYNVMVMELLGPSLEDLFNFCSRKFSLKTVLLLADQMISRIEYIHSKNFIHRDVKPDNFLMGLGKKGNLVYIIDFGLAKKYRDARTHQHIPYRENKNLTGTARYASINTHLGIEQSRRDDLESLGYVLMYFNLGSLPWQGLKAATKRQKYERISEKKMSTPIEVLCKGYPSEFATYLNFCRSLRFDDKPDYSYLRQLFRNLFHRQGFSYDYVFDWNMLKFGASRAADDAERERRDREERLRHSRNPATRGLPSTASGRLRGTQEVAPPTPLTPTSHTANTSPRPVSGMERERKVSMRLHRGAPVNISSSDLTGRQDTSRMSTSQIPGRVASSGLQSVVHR
T1 sequence (Q5S007 whole entry): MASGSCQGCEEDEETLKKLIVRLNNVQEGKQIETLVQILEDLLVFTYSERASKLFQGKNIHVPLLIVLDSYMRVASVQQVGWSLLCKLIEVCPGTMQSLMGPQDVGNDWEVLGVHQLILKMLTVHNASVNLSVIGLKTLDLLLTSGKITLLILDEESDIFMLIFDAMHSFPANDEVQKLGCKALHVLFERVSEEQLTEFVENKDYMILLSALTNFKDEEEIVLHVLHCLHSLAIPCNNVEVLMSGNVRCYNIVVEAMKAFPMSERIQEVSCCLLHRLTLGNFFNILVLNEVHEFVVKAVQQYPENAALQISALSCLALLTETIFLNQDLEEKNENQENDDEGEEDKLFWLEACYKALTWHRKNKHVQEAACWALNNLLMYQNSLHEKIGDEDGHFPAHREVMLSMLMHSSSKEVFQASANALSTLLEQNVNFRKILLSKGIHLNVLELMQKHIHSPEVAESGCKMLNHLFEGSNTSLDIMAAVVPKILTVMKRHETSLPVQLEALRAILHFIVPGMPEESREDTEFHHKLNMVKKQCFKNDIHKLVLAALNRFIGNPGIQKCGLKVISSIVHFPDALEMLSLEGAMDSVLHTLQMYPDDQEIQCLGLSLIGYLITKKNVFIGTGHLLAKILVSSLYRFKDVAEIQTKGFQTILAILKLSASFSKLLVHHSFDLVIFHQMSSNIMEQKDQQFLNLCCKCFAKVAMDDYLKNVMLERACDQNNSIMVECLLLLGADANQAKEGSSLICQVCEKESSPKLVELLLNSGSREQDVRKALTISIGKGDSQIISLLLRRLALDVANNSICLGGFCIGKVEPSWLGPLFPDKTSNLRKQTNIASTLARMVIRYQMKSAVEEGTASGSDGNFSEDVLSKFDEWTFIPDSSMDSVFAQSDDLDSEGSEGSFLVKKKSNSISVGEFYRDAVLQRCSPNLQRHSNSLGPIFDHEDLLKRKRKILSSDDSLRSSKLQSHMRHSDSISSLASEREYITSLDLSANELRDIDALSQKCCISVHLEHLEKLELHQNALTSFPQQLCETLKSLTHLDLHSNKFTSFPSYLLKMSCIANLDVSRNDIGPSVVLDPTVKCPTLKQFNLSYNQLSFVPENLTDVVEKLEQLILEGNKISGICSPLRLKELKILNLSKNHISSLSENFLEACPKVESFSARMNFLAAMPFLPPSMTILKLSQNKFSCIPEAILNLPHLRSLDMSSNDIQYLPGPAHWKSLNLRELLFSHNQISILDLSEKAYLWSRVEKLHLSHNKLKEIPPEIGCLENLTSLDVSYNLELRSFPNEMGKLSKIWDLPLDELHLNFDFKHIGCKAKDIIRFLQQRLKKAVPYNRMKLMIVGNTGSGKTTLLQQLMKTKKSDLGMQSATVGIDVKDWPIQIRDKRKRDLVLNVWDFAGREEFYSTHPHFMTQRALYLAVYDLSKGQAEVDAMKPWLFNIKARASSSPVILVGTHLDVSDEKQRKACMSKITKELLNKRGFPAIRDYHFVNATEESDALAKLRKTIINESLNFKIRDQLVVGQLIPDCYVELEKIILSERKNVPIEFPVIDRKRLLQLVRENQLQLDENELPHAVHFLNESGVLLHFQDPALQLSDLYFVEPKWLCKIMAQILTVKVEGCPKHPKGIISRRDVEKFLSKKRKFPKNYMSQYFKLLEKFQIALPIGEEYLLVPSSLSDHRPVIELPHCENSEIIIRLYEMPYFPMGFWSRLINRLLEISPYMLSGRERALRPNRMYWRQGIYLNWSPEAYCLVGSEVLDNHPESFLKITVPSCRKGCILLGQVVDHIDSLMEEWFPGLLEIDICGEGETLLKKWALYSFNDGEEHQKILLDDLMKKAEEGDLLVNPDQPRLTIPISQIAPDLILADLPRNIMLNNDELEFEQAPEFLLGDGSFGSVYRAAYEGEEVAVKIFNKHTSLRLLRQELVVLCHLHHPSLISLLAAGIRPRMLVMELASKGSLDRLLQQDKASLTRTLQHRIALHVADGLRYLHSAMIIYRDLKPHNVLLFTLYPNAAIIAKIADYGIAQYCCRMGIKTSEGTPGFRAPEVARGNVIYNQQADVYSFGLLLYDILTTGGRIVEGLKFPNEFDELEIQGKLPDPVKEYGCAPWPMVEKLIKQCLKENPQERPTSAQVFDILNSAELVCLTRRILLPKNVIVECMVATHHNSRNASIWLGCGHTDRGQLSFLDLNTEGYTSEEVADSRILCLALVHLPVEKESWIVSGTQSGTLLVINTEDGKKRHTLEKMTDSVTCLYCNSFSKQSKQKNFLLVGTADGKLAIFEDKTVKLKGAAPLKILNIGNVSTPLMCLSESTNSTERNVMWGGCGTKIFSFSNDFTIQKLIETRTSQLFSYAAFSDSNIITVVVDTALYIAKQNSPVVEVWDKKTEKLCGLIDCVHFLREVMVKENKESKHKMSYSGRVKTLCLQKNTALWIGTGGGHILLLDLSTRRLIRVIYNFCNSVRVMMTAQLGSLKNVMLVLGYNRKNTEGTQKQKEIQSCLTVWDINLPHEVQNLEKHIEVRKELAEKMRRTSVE
Sequence of BACE1 (P56817 46-501): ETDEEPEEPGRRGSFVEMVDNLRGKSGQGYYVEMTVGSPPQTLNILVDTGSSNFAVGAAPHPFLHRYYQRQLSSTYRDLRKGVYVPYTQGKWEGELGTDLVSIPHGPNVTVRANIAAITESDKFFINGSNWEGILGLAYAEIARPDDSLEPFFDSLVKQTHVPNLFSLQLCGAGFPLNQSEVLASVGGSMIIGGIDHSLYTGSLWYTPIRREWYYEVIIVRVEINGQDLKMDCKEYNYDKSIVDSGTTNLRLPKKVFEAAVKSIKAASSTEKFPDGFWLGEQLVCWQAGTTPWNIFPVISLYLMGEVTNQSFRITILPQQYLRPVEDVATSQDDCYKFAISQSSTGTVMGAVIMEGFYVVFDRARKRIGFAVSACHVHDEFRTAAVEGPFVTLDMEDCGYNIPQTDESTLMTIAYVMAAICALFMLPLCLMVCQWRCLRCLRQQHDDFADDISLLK
T2 sequence (P49841 whole entry): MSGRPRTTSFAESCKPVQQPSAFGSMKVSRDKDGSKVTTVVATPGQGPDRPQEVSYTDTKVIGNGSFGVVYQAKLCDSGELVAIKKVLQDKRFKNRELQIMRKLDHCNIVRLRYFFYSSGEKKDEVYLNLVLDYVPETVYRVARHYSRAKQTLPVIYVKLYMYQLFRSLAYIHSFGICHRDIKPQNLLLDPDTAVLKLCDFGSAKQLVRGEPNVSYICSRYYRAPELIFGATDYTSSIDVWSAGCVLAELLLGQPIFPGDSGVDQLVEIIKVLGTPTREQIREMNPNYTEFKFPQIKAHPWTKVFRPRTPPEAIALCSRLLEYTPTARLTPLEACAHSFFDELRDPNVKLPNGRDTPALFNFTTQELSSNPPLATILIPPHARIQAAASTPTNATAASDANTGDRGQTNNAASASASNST

| IC50 (LRRK2) [µM] | IC50 (CK1δ) [µM] | IC50 (BACE1) [µM] | Papp at 2.5 h (PAMPA-BBB test; [1]) [×10⁻⁶ cm/s] | SMILES | CNS prediction (PAMPA-BBB test; PAMPA-BBB) | other results |
| --- | --- | --- | --- | --- | --- | --- |
| 0.71 ± 0.26 | 0.4 ± 0.06 | 7.21 ± 0.35 | 0.65 ± 0.18 | O=C(Cc1ccc(OCc2cn(Cc3ccc(C(=O)Nc4nc5ccccc5s4)cc3)nn2)cc1)Nc1nc2ccc(C(F)(F)F)cc2s1 [compound 28] | CNS- (CNS‐ (red) for compounds with Pe <1.88×10^−6 cm s^−1) |  |
| 3.19 ± 1.01 |  | 8.57 ± 0.45 | 3.58 ± 0.12 | O=C(Cc1ccc(OCc2cn(CCc3ccc(C(=O)Nc4nc5ccccc5s4)cc3)nn2)cc1)Nc1nc2ccccc2s1 [compound 30] | CNS+ (CNS+ (green) for compounds with Pe >3.20×10^−6 cm s^−1) | inhibition at 10 µM (CK1δ; read-out: CK1δ enzyme inhibition at 10 μM): 30%; melting point: 239 to 240 °C |
| 1.88 |  | 7.14 |  | O=C(Nc1nc2ccccc2s1)c1ccc(CSCCCSCc2ccc(C(=O)Nc3nc4ccccc4s3)cc2)cc1 [compound 3] |  |  |

Continued, compound first:

| SMILES | IC50 (LRRK2) [µM] | IC50 (CK1δ) [µM] | IC50 (BACE1) [µM] | Papp at 2.5 h (PAMPA-BBB test; [1]) [×10⁻⁶ cm/s] | CNS prediction (PAMPA-BBB test; PAMPA-BBB) | other results |
| --- | --- | --- | --- | --- | --- | --- |
| CCn1cc(C(=O)O)c(=O)c2cc(F)c(N3CCNCC3)nc21 [Enoxacine, enoxacine, reference compound] |  |  |  |  |  | Pe exp (PAMPA-BBB test; [1]): 1.41 ± 0.05 10-6 cm s-1 |
| CCn1sc(=O)n(Cc2cn(Cc3ccc(CC(=O)Nc4nc5ccccc5s4)cc3)nn2)c1=O [compound 15] |  | 1.25 ± 0.21 |  | 5.08 ± 0.63 | CNS+ (CNS+ (green) for compounds with Pe >3.20×10^−6 cm s^−1) | IC50 (Human recombinant GSK3β): 3.85 ± 0.32 µM; inhibition at 10 µM (BACE1): 30%; Aβ40 levels in cellular lysates (SK-APP cells): decrease; Aβ40 levels in extracellular fluid (SK-APP cells): decrease; Aβ42 levels in cellular lysates (intracellular) (SK-APP cells): unchanged; Aβ42 levels in extracellular fluid (SK-APP cells): significant decrease; Neuroprotection against okadaic acid (OA) toxicity (SH-SY5Y cells): rescue from the toxic effect of OA |
| O=C(Nc1nc2ccccc2s1)c1ccc(CCn2cc(COc3ccc(C(=O)Nc4nc5ccccc5s4)cc3)nn2)cc1 [compound 33] |  |  |  |  |  | inhibition at 10 µM (LRRK2; read-out: LRRK2 enzyme inhibition at 10 μM): 98%; inhibition at 10 µM (BACE1): < 20% |
| CCOC(=O)c1sc(NC(=O)Cc2ccc(OCc3cn(Cc4ccc(CC(=O)Nc5nc6ccccc6s5)cc4)nn3)cc2)nc1C [compound 31] |  | 5.4 ± 0.91 | 6.76 ± 0.61 |  |  | inhibition at 10 µM (Human recombinant GSK3β; read-out: GSK3β enzyme inhibition at 10 μM): 26%; Solubility in the conditions of the PAMPA experiment (PAMPA-BBB test; PBS pH 7.4 with 5% DMSO): insoluble |
| Cn1c(=O)c2c(ncn2C)n(C)c1=O [Caffeine, caffeine, reference compound] |  |  |  | 1.45 ± 0.26 |  |  |
| CNCCCN1c2ccccc2CCc2ccccc21 [Desipramine, desipramine, reference compound] |  |  |  | 7.44 ± 0.9 |  |  |
